Target: T1, recombinant human ULK1 protein (1-649) (Homo sapiens, UniProt O75385)
T1 construct: recombinant human ULK1 protein (1-649, SignalChem #U01-11G); purchased SignalChem U01-11G
T1 sequence (O75385 1-649): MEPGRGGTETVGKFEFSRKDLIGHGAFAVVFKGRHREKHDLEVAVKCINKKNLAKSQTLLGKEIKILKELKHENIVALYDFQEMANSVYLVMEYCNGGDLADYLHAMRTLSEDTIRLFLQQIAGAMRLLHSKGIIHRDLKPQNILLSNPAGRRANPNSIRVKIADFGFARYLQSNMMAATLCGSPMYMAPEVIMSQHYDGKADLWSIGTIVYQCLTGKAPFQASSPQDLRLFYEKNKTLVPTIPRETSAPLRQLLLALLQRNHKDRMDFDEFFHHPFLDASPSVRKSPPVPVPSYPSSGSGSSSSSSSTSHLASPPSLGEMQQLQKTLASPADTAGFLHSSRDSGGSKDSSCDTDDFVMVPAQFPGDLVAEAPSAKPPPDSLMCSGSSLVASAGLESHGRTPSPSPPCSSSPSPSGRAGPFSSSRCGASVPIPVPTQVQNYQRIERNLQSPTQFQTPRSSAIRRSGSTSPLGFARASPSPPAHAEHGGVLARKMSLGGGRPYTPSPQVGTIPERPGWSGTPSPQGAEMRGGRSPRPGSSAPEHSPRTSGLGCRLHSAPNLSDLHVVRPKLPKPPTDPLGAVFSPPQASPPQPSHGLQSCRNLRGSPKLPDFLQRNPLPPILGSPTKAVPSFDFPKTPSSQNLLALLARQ
Experiment: ULK1 inhibition assay (ADP Glo)
Assay type: biochemical
Details: Table 1; 25 uM ATP, MBP substrate, one hour
Description: Illustrative compounds of Formula I and related analogs are shown in Table 1 (along with their respective IC50 values for ULK1 inhibition assays). For ADP Glo assay, IC50s are represented nM, with A representing IC50<1 nM, B representing 10 nM>IC50>1 nM, and C representing IC50>10 nM. NT indicates the compound was not tested. ULK1 inhibition assays were performed in a 5 uL reaction volume containing 2 ug/mL recombinant human ULK1 protein (1-649, SignalChem #U01-11G) and 80 ug/mL myelin basic protein (MBP, Sigma-Aldrich #M1891) in the presence of 25 uM ATP (Sigma-Aldrich A7699). ULK 1 inhibition was assessed after one hour. Compounds were tested in triplicate in a 16-dose IC50 mode with 3-fold serial dilution and a starting dose of 30 uM. Staurosporine, a non-selective protein kinase inhibitor, was used in the assay as a positive control.
According to another embodiment, the present disclosure provides methods of producing the above-defined compounds. The compounds may be synthesized using any suitable techniques. Advantageously, these compounds are conveniently synthesized from readily available starting materials. Synthetic chemistry transformations and methodologies useful in synthesizing the compounds described herein are known in the art and include, for example, those described in R. Larock, Comprehensive Organic Transformations (1989); T. W. Greene and P. G. M. Wuts, Protective Groups in Organic Synthesis, 2d. Ed. (1991); L. Fieser and M. Fieser, Fieser and Fieser's Reagents for Organic Synthesis (1994); and L. Paquette, ed., Encyclopedia of Reagents for Organic Synthesis (1995).). In general, synthesis and measurements of ULK1 inhibitory activity of the compounds described herein was performed using method analogous to those previously described in PCT International Application No. PCT/US2015/046777 which is hereby incorporated by reference in its entirety.

Row | SMILES | IC50
1 | CNC(=O)c1ccccc1Nc1nc(Nc2ccc3c(c2)CCN(CC(=O)N2CCOCC2)C3)ncc1Br [Compound A127, 2-{5-Bromo-2-[2-(2-morpholin-4-yl-2-oxo-ethyl)-1,2,3,4-tetrahydro-isoquinolin-6-ylamino]-pyrimidin-4-ylamino}-N-methyl-benzamide] | > 10 nM
2 | CNC(=O)c1ccccc1Nc1nc(Nc2ccc3c(c2)CCN(C(=O)N2CCN(C)CC2)C3)ncc1Br [Compound A128, 2-{5-Bromo-2-[2-(4-methyl-piperazine-1-carbonyl)-1,2,3,4-tetrahydro-isoquinolin-6-ylamino]-pyrimidin-4-ylamino}-N-methyl-benzamide] | > 10 nM
3 | CNC(=O)c1ccccc1Nc1nc(Nc2ccc3c(c2)CCN(Cc2ccc(OC)cc2)C3)ncc1Br [Compound A129, 2-{5-Bromo-2-[2-(4-methoxy-benzyl)-1,2,3,4-tetrahydro-isoquinolin-6-ylamino]-pyrimidin-4-ylamino}-N-methyl-benzamide] | > 10 nM
4 | CNC(=O)c1ccccc1Nc1nc(Nc2ccc3c(c2)CCN(Cc2cccnc2)C3)ncc1Br [Compound A130, 2-[5-Bromo-2-(2-pyridin-3-ylmethyl-1,2,3,4-tetrahydro-isoquinolin-6-ylamino)-pyrimidin-4-ylamino]-N-methyl-benzamide] | > 10 nM
5 | CNC(=O)c1ccccc1Nc1nc(Nc2ccc3c(c2)CCN(Cc2ccncc2)C3)ncc1Br [Compound A131, 2-[5-Bromo-2-(2-pyridin-4-ylmethyl-1,2,3,4-tetrahydro-isoquinolin-6-ylamino)-pyrimidin-4-ylamino]-N-methyl-benzamide] | > 10 nM
6 | CNC(=O)c1ccccc1Nc1nc(Nc2ccc3c(c2)CCN(C(=O)CN)C3)ncc1Br [Compound A132, 2-{2-[2-(2-Amino-acetyl)-1,2,3,4-tetrahydro-isoquinolin-6-ylamino]-5-bromo-pyrimidin-4-ylamino}-N-methyl-benzamide] | > 10 nM
7 | CNCC(=O)N1CCc2cc(Nc3ncc(Br)c(Nc4ccccc4C(=O)NC)n3)ccc2C1 [Compound A133, 2-{5-Bromo-2-[2-(2-methylamino-acetyl)-1,2,3,4-tetrahydro-isoquinolin-6-ylamino]-pyrimidin-4-ylamino}-N-methyl-benzamide] | > 10 nM
8 | CNC(=O)c1ccccc1Nc1nc(Nc2ccc3c(c2)CCN(C(=O)CCC(=O)O)C3)ncc1Br [Compound A134, 4-{6-[5-Bromo-4-(2-methylcarbamoyl-phenylamino)-pyrimidin-2-ylamino]-3,4-dihydro-1H-isoquinolin-2-yl}-4-oxo-butyric acid] | > 10 nM
9 | CNC(=O)c1ccccc1Nc1nc(Nc2ccc3c(c2)CCN(C)C3)ncc1Br [Compound A135, 2-[5-Bromo-2-(2-methyl-1,2,3,4-tetrahydro-isoquinolin-6-ylamino)-pyrimidin-4-ylamino]-N-methyl-benzamide] | > 10 nM
10 | CNC(=O)c1ccccc1Nc1nc(Nc2ccc3c(c2)CCN(C(=O)CCN)C3)ncc1Br [Compound A136, 2-{2-[2-(3-Amino-propionyl)-1,2,3,4-tetrahydro-isoquinolin-6-ylamino]-5-bromo-pyrimidin-4-ylamino}-N-methyl-benzamide] | > 10 nM
11 | CNC(=O)c1ccccc1Nc1nc(Nc2ccc3c(c2)CCN(CC(C)O)C3)ncc1Br (stereo not shown) [Compound A138, 2-{5-Bromo-2-[2-(2-hydroxy-propyl)-1,2,3,4-tetrahydro-isoquinolin-6-ylamino]-pyrimidin-4-ylamino}-N-methyl-benzamide] | > 10 nM
12 | CNC(=O)c1ccccc1Nc1nc(Nc2ccc3c(c2)CCN(S(N)(=O)=O)C3)ncc1Br [Compound A140, 2-[5-Bromo-2-(2-sulfamoyl-1,2,3,4-tetrahydro-isoquinolin-6-ylamino)-pyrimidin-4-ylamino]-N-methyl-benzamide] | > 10 nM
13 | CNC(=O)c1ccccc1Nc1nc(Nc2ccc3c(c2)CCN(CCC(=O)O)C3)ncc1Br [Compound A141, 3-{6-[5-Bromo-4-(2-methylcarbamoyl-phenylamino)-pyrimidin-2-ylamino]-3,4-dihydro-1H-isoquinolin-2-yl}-propionic acid] | > 10 nM
14 | CNC(=O)c1ccccc1Nc1nc(Nc2ccc3c(c2)CCN(CCC(N)=O)C3)ncc1Br [Compound A142, 2-{5-Bromo-2-[2-(2-carbamoyl-ethyl)-1,2,3,4-tetrahydro-isoquinolin-6-ylamino]-pyrimidin-4-ylamino}-N-methyl-benzamide] | > 10 nM
15 | CNC(=O)c1ccccc1Nc1nc(Nc2ccc3c(c2)CC[N+](C)(C)C3)ncc1Br [Compound A143, 6-[5-Bromo-4-(2-methylcarbamoyl-phenylamino)-pyrimidin-2-ylamino]-2,2-dimethyl-1,2,3,4-tetrahydro-isoquinolinium; iodide] | > 10 nM
16 | CNC(=O)c1ccccc1Nc1nc(Nc2ccc3c(c2)CCN(Cc2ccccn2)C3)ncc1Br [Compound A144, 2-[5-Bromo-2-(2-pyridin-2-ylmethyl-1,2,3,4-tetrahydro-isoquinolin-6-ylamino)-pyrimidin-4-ylamino]-N-methyl-benzamide] | > 10 nM
17 | CNC(=O)c1ccccc1Nc1nc(Nc2ccc3c(c2)CCN(Cc2ccncn2)C3)ncc1Br [Compound A146, 2-[5-Bromo-2-(2-pyrimidin-4-ylmethyl-1,2,3,4-tetrahydro-isoquinolin-6-ylamino)-pyrimidin-4-ylamino]-N-methyl-benzamide] | > 10 nM
18 | CNC(=O)c1ccccc1Nc1nc(Nc2ccc3c(c2)CNCC3)ncc1Br [Compound A147, 2-[5-Bromo-2-(1,2,3,4-tetrahydro-isoquinolin-7-ylamino)-pyrimidin-4-ylamino]-N-methyl-benzamide] | > 10 nM
19 | CNC(=O)c1ccccc1Nc1nc(Nc2ccc3c(c2)CN(CC(=O)N2CCOCC2)CC3)ncc1Br [Compound A148, 2-{5-Bromo-2-[2-(2-morpholin-4-yl-2-oxo-ethyl)-1,2,3,4-tetrahydro-isoquinolin-7-ylamino]-pyrimidin-4-ylamino}-N-methyl-benzamide] | > 10 nM
20 | CNC(=O)c1ccccc1Nc1nc(Nc2ccc3c(c2)CN(CCOC)CC3)ncc1Br [Compound A149, 2-{5-Bromo-2-[2-(2-methoxy-ethyl)-1,2,3,4-tetrahydro-isoquinolin-7-ylamino]-pyrimidin-4-ylamino}-N-methyl-benzamide] | > 10 nM
21 | CNC(=O)c1ccccc1Nc1nc(Nc2ccc3c(c2)CN(C(=O)N2CCN(C)CC2)CC3)ncc1Br [Compound A150, 2-{5-Bromo-2-[2-(4-methyl-piperazine-1-carbonyl)-1,2,3,4-tetrahydro-isoquinolin-7-ylamino]-pyrimidin-4-ylamino}-N-methyl-benzamide] | > 10 nM
22 | CNC(=O)c1ccccc1Nc1nc(Nc2ccc3c(c2)CN(CCN)CC3)ncc1Br [Compound A151, 2-{2-[2-(2-Amino-ethyl)-1,2,3,4-tetrahydro-isoquinolin-7-ylamino]-5-bromo-pyrimidin-4-ylamino}-N-methyl-benzamide] | > 10 nM
23 | CNC(=O)c1ccccc1Nc1nc(Nc2ccc3c(c2)CN(C(=O)CN)CC3)ncc1Br [Compound A152, 2-{2-[2-(2-Amino-acetyl)-1,2,3,4-tetrahydro-isoquinolin-7-ylamino]-5-bromo-pyrimidin-4-ylamino}-N-methyl-benzamide] | > 10 nM
24 | CNCC(=O)N1CCc2ccc(Nc3ncc(Br)c(Nc4ccccc4C(=O)NC)n3)cc2C1 [Compound A153, 2-{5-Bromo-2-[2-(2-methylamino-acetyl)-1,2,3,4-tetrahydro-isoquinolin-7-ylamino]-pyrimidin-4-ylamino}-N-methyl-benzamide] | > 10 nM
25 | CNC(=O)c1ccccc1Nc1nc(Nc2ccc3c(c2)CN(C(=O)CCN)CC3)ncc1Br [Compound A155, 2-{2-[2-(3-Amino-propionyl)-1,2,3,4-tetrahydro-isoquinolin-7-ylamino]-5-bromo-pyrimidin-4-ylamino}-N-methyl-benzamide] | > 10 nM

Reference: patent publication US20230135635A1, “INHIBITORS OF ULK1/2 AND METHODS OF USING SAME” (SALK INSTITUTE FOR BIOLOGICAL STUDIES, priority 2020, published 2023)
